{"source": "paper PMC13185115", "about": "“Photovermellogens: Minimalistic Pyridinium-Based Acylhydrazones with Photoswitchable Basicity for Operation in Aqueous Media” (The Journal of Organic Chemistry, 2026)", "assay_type_in_all_cases": "physicochemical", "key": {"[1]": {"assay": "Thermal Z-PH+ to E-PH+ back-isomerization kinetics", "settings": "Arrhenius analysis, 47, 55 and 64 °C, from 254 nm photostationary state", "description": "Photoisomerization studies were subsequently carried out in acidic medium (pH = pK a – 2) in order to assess the photoresponse of the protonated species. Under these conditions, the anticipated photoisomerization of the thermally stable E-P a–dH^+ species was investigated by UV–vis absorption spectroscopy under irradiation at 254 nm. […] It is noteworthy that the irradiation wavelength can be extended to 365 nm, yielding virtually the same observations as for 254 nm irradiation (see footnotes of Table ). Irradiation also produced clear NMR spectral changes that support the occurrence of the E→Z isomerization. In essence, the signals Hf–h of the phenyl moiety were only slightly affected, whereas those of the pyridinium and acylhydrazone fragments shifted markedly, consistent with the formation of an intramolecular hydrogen bond in the Z-P a–cH^+ species. The reverse Z→E transformation of the protonated forms P a–cH^+ was also achieved upon irradiation at λ > 420 nm, giving lower quantum yields and less favorable PSDs (Figures S145–S147, S149–154, S1).\n5.5. Z-P a-cH+→E-P a-cH+ thermal back-isomerization kinetics.\nFigure S155. Absorption spectrum variation during 48h at room temperature from the PSS reached for P aH·Cl (7µM, pH 6, Red) state during 48h. E-isomer absorption spectrum in green.\nEven though the kinetics has not been fully completed, it can be observed that it occurs much more slowly than photochemical processes.\nTo obtain an estimation of P aH·Cl Z→E thermal half-live at room temperature, the Z →E thermal reversion kinetics were monitored starting from the 254nm photostationary state at different temperatures (47, 55 and 64 °C). By tracking the absorbance changes at 420 nm, an Arrhenius analysis was performed, allowing the determination of the activation energy (EA) and the estimation of the thermal half-life at 25 °C."}, "[2]": {"assay": "Thermal Z-P to E-P isomerization of the kinetically trapped conjugate bases at pH 13", "settings": "26 µM, pH 13, room temperature, monitored at 429 nm", "description": "Having confirmed the photochemical behavior of the protonated forms, we next explored their light-responsiveness in the deprotonated state. […] To probe whether Z-P a–c could nonetheless be generated indirectly, we explored a consecutive photoisomerization–deprotonation sequence. Thus, E-P a–cH^+ was first irradiated at 254 nm and pH 6 to enrich the Z population, followed by immediate adjustment of the solution to pH 13. Under these conditions, transient spectroscopic features were observed, consistent with the kinetic trapping of the metastable Z-P a–c species. […]\nTo gain further insight into the behavior of the metastable Z-bases, absorbance changes of the kinetically trapped state were monitored over time in the dark for the whole P a–c series. […]\n(§1) Figure S169. […] Right: Kinetics (monitored at 429 nm) of the isomerization of Z-P a to E-P a (26 µM) at room temperature. k = 7.2 × 10 –4 s–1.\n(§2) Figure S170. […] Right: Kinetics (monitored at 429 nm) of the photoisomerization of Z-P a to E-P a (26 µM) upon irradiation at >495 nm. k = 2.5 × 10 –3 s–1. […]\nis in blue. Right: Kinetics (monitored at 456 nm) of the isomerization of Z-P b to E-P b (15 µM) at room temperature. k = 8.9 × 10 –5 s–1. […]\nis in blue. Right: Kinetics (monitored at 432 nm) of the isomerization of Z-P c to E-P c (16 µM) at room temperature. k = 8.4 × 10 –5 s–1."}, "[3]": {"assay": "Irradiation of the conjugate bases (E→Z attempt; Z→E at >495 nm)", "settings": "26 µM, pH 13, irradiation at >495 nm, monitored at 429 nm", "description": "Having confirmed the photochemical behavior of the protonated forms, we next explored their light-responsiveness in the deprotonated state. […] To probe whether Z-P a–c could nonetheless be generated indirectly, we explored a consecutive photoisomerization–deprotonation sequence. Thus, E-P a–cH^+ was first irradiated at 254 nm and pH 6 to enrich the Z population, followed by immediate adjustment of the solution to pH 13. Under these conditions, transient spectroscopic features were observed, consistent with the kinetic trapping of the metastable Z-P a–c species. […] These spectroscopic observations enabled the estimation of virtual pK a values for the Z-enriched solutions (Table and Figures S163–168, SI1), which confirmed the reduced acidity of the NH group in the Z-isomers, presumably arising from intramolecular hydrogen-bond formation.\nTo gain further insight into the behavior of the metastable Z-bases, absorbance changes of the kinetically trapped state were monitored over time in the dark for the whole P a–c series.\n7. Thermal Z-P a-c→E-P a-c isomerizations from the PSS […]\nas §1, §2"}}, "data": [{"smiles": "C[n+]1ccc(N/N=C\\C(=O)c2ccccc2)cc1", "note": "[Z-P aH^+]", "values": [{"measurement": "activation energy E A of thermal Z→E reversion", "setting": "[1]", "value": 17.4, "unit": "kcal·mol^–1"}]}, {"smiles": "C[n+]1ccc([N-]/N=C\\C(=O)c2ccccc2)cc1", "note": "[Z-P a]", "values": [{"measurement": "k thermal isomerization Z-P to E-P", "setting": "[2]", "value": "7.2 10^–4 s^–1"}, {"measurement": "k photoisomerization Z-P to E-P", "setting": "[3]", "value": "2.5 10^–3 s^–1"}]}]}
